Values of other authors as cited in US20160082141A1, “CHITIN AND ALGINATE COMPOSITE FIBERS” (THE BOARD OF TRUSTEES OF THE UNIVERSITY OF ALABAMA, priority 2013, published 2016).

Settings: Dubbs and Gupta 1998

Solubility in water, mass fraction: 20.9×10^−6 g vitamin E/g water | Solubility in water, mol fraction: 0.87×10^−6 mole vitamin E/mole water
Structure (SMILES): Cc1c(C)c2c(c(C)c1O)CC[C@@](C)(CCC[C@H](C)CCC[C@H](C)CCCC(C)C)O2 [Vitamin E, α-tocopherol]
